Experimental data from ChEMBL document CHEMBL1201862, “PubChem BioAssay data set” (2004).
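Growth conditions: 96-well plates. Treatment: test compound, 48 hours, 5 concentrations. Analysis: linear interpolation between bracketing concentrations; unreached endpoints set to highest concentration. The concentration for 50% growth inhibition is given as GI50.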 The source made the active and inactive calls. No stated cut-off is given here; in the data, active = GI50 up to about 1.1 µM and inactive = higher.

How the values were obtained:
Test in all cases: NCI-60 cell line screen, 48 h
NCI-H226 = test system: NCI-H226
LOX IMVI = test system: LOX IMVI
SK-MEL-5 = test system: SK-MEL-5
HL-60 = test system: HL-60
EKVX = test system: EKVX
SNB-19 = test system: SNB-19
SNB-75 = test system: SNB-75
HOP-18 = test system: HOP-18
HT-29 = test system: HT-29
KM12 = test system: KM12
SN12C = test system: SN12C
ACHN = test system: ACHN
HCT-15 = test system: HCT-15
OVCAR-8 = test system: OVCAR-8
SF-295 = test system: SF-295
OVCAR-4 = test system: OVCAR-4
CAKI-1 = test system: CAKI-1
PC-3 = test system: PC-3
Hs-578T = test system: Hs-578T
BT-549 = test system: BT-549

Structure (SMILES)	GI50 (NCI-H226)	GI50 (LOX IMVI)	GI50 (SK-MEL-5)	GI50 (HL-60)	GI50 (EKVX)	GI50 (SNB-19)	GI50 (SNB-75)	GI50 (HOP-18)	GI50 (HT-29)	GI50 (KM12)	GI50 (SN12C)	GI50 (ACHN)	GI50 (HCT-15) [µM]	GI50 (OVCAR-8)	GI50 (SF-295)	GI50 (OVCAR-4)	GI50 (CAKI-1)	GI50 (PC-3)	GI50 (Hs-578T)	GI50 (BT-549)
N#CC1(Cc2ccccc2Cl)c2ccccc2C=CN1C(=O)c1ccccc1 (stereo not drawn)	> 100 µM (inactive)	> 100 µM (inactive)	47.4 µM (inactive)	29 µM (inactive)	> 100 µM (inactive)	> 100 µM (inactive)	> 100 µM (inactive)	> 100 µM (inactive)	75.5 µM (inactive)	> 100 µM (inactive)	77.8 µM (inactive)	90.8 µM (inactive)	98.6	> 100 µM (inactive)	81.8 µM (inactive)	–	–	–	–	–
N#Cc1ccccc1Sc1ccccc1N	13 µM (inactive)	> 100 µM (inactive)	18.7 µM (inactive)	72.6 µM (inactive)	77.1 µM (inactive)	> 100 µM (inactive)	–	27 µM (inactive)	> 100 µM (inactive)	93.3 µM (inactive)	78.3 µM (inactive)	> 100 µM (inactive)	–	> 100 µM (inactive)	> 100 µM (inactive)	64.4 µM (inactive)	36 µM (inactive)	–	–	–
COc1cc(C2=N/C(=C/c3cccs3)C(=O)O2)cc(OC)c1OC	> 100 µM (inactive)	> 100 µM (inactive)	> 100 µM (inactive)	> 100 µM (inactive)	> 100 µM (inactive)	> 100 µM (inactive)	> 100 µM (inactive)	–	> 100 µM (inactive)	> 100 µM (inactive)	> 100 µM (inactive)	> 100 µM (inactive)	> 100	> 100 µM (inactive)	> 100 µM (inactive)	> 100 µM (inactive)	> 100 µM (inactive)	> 100 µM (inactive)	> 100 µM (inactive)	> 100 µM (inactive)
O=C(NNC(=S)Nc1ccccc1)c1ccccc1Nc1ccccc1C(=O)NNC(=S)Nc1ccccc1	24.5 µM (inactive)	12.9 µM (inactive)	26.3 µM (inactive)	35.5 µM (inactive)	21.1 µM (inactive)	17.7 µM (inactive)	22.4 µM (inactive)	–	28.5 µM (inactive)	42 µM (inactive)	19.6 µM (inactive)	31.2 µM (inactive)	29.5	20 µM (inactive)	20.9 µM (inactive)	26.7 µM (inactive)	48.2 µM (inactive)	23 µM (inactive)	13.1 µM (inactive)	17.4 µM (inactive)
[N-]=[N+]=NC1(c2ccccc2)C(=O)C(Cl)=C(c2ccccc2)N(c2ccccc2)C1=O (stereo not drawn)	–	> 100 µM (inactive)	> 100 µM (inactive)	43.1 µM (inactive)	> 100 µM (inactive)	> 100 µM (inactive)	> 100 µM (inactive)	> 100 µM (inactive)	> 100 µM (inactive)	> 100 µM (inactive)	> 100 µM (inactive)	> 100 µM (inactive)	> 100	> 100 µM (inactive)	> 100 µM (inactive)	> 100 µM (inactive)	> 100 µM (inactive)	–	–	–
C1CN2CCNCCN(CCN1)CC2	> 100 µM (inactive)	> 100 µM (inactive)	> 100 µM (inactive)	20.9 µM (inactive)	> 100 µM (inactive)	> 100 µM (inactive)	> 100 µM (inactive)	–	> 100 µM (inactive)	> 100 µM (inactive)	> 100 µM (inactive)	> 100 µM (inactive)	> 100	> 100 µM (inactive)	> 100 µM (inactive)	> 100 µM (inactive)	> 100 µM (inactive)	> 100 µM (inactive)	> 100 µM (inactive)	> 100 µM (inactive)
COc1ccc(C(=O)/C=C/c2cc(O)c(O)c(F)c2F)c(OC)c1	21.5 µM (inactive)	13.6 µM (inactive)	11.5 µM (inactive)	4.22 µM (inactive)	25 µM (inactive)	27.2 µM (inactive)	22.4 µM (inactive)	–	4.67 µM (inactive)	11.4 µM (inactive)	10.3 µM (inactive)	20.8 µM (inactive)	4.99	20.8 µM (inactive)	18.5 µM (inactive)	19 µM (inactive)	25.6 µM (inactive)	12.3 µM (inactive)	61.4 µM (inactive)	19.2 µM (inactive)
CC(C)(C)NNC(=O)CCn1[nH]c(=O)c(Cl)c(Cl)c1=O	> 100 µM (inactive)	> 100 µM (inactive)	–	> 100 µM (inactive)	> 100 µM (inactive)	> 100 µM (inactive)	> 100 µM (inactive)	> 100 µM (inactive)	> 100 µM (inactive)	> 100 µM (inactive)	> 100 µM (inactive)	> 100 µM (inactive)	> 100	> 100 µM (inactive)	> 100 µM (inactive)	> 100 µM (inactive)	> 100 µM (inactive)	–	–	–
